Source: patent US4604234A, “Protein having cell growth stimulating action, composition thereof and method for producing the same” (priority 1983, dated 1986)
Like-named read-outs stand apart in the source and are kept apart here.

Columns and labels:
epidermal cell = settings: cited from earlier work
BHK-21 cells [1] = assay: Inhibitory effects of steroids on BHK-21 cells; type: cell-based, hamster; settings: for activity at 0.5 µg/mL / activity at 1 µg/mL / activity at 5 µg/mL / activity at 25 µg/mL / activity at 50 µg/mL: Mesocricetus auratus, read-out: % of control cell numbers
BHK-21 cells [2] = assay: Effects of WHS on BHK-21 cells in the presence of steroids; type: cell-based, hamster; settings: steroid 50 μg/ml alone
mouse fibroblasts = settings: with protoplasmic vacuolation; cited from earlier work
[3] = test system: BHK-21 cells (hamster renal fibroblasts); assay: Growth of BHK-21 cells, time course; type: cell-based

cholera toxin
stimulating activity on epidermal cell growth (epidermal cell): marked stimulating activity

CC1(C)O[C@@H]2C[C@H]3[C@@H]4C[C@H](F)C5=CC(=O)C=C[C@]5(C)[C@@]4(F)[C@@H](O)C[C@]3(C)[C@]2(C(=O)CO)O1 [Fluocinolone acetanide, fluocinolone acetonide]
cell numbers (BHK-21 cells [1]; 0.5 μg/ml, 1 day): 0.15 × 10^5 cells/dish
cell numbers (BHK-21 cells [1]; 0.5 μg/ml, 3 days): 1.16 × 10^5 cells/dish
cell numbers (BHK-21 cells [1]; 0.5 μg/ml, 5 days): 1.66 × 10^5 cells/dish
cell numbers (BHK-21 cells [1]; 1.0 μg/ml, 1 day): 0.15 × 10^5 cells/dish
cell numbers (BHK-21 cells [1]; 1.0 μg/ml, 3 days): 1.04 × 10^5 cells/dish
cell numbers (BHK-21 cells [1]; 1.0 μg/ml, 5 days): 1.72 × 10^5 cells/dish
cell numbers (BHK-21 cells [1]; 5.0 μg/ml, 1 day): 0.15 × 10^5 cells/dish
cell numbers (BHK-21 cells [1]; 5.0 μg/ml, 3 days): 1.02 × 10^5 cells/dish
cell numbers (BHK-21 cells [1]; 5.0 μg/ml, 5 days): 1.66 × 10^5 cells/dish
cell numbers (BHK-21 cells [1]; 25.0 μg/ml, 1 day): 0.15 × 10^5 cells/dish
cell numbers (BHK-21 cells [1]; 25.0 μg/ml, 3 days): 0.88 × 10^5 cells/dish
cell numbers (BHK-21 cells [1]; 25.0 μg/ml, 5 days): 1.39 × 10^5 cells/dish
cell numbers (BHK-21 cells [1]; 50.0 μg/ml, 1 day): 0.12 × 10^5 cells/dish
cell numbers (BHK-21 cells [1]; 50.0 μg/ml, 3 days): 0.71 × 10^5 cells/dish
cell numbers (BHK-21 cells [1]; 50.0 μg/ml, 5 days): 1.12 × 10^5 cells/dish
activity at 0.5 µg/mL (BHK-21 cells [1]; BHK-21, 24 h, 0.5 μg/ml, 1 day): 107%
activity at 1 µg/mL (BHK-21 cells [1]; BHK-21, 24 h, 1.0 μg/ml, 1 day): 107%
activity at 5 µg/mL (BHK-21 cells [1]; BHK-21, 24 h, 5.0 μg/ml, 1 day): 107%
activity at 25 µg/mL (BHK-21 cells [1]; BHK-21, 24 h, 25.0 μg/ml, 1 day): 107%
activity at 50 µg/mL (BHK-21 cells [1]; BHK-21, 24 h, 50.0 μg/ml, 1 day): 85.7%
activity at 0.5 µg/mL (BHK-21 cells [1]; BHK-21, 72 h, 0.5 μg/ml, 3 days): 86.6%
activity at 1 µg/mL (BHK-21 cells [1]; BHK-21, 72 h, 1.0 μg/ml, 3 days): 77.6%
activity at 5 µg/mL (BHK-21 cells [1]; BHK-21, 72 h, 5.0 μg/ml, 3 days): 76.1%
activity at 25 µg/mL (BHK-21 cells [1]; BHK-21, 72 h, 25.0 μg/ml, 3 days): 65.7%
activity at 50 µg/mL (BHK-21 cells [1]; BHK-21, 72 h, 50.0 μg/ml, 3 days): 53%
activity at 0.5 µg/mL (BHK-21 cells [1]; BHK-21, 120 h, 0.5 μg/ml, 5 days): 75.8%
activity at 1 µg/mL (BHK-21 cells [1]; BHK-21, 120 h, 1.0 μg/ml, 5 days): 78.5%
activity at 5 µg/mL (BHK-21 cells [1]; BHK-21, 120 h, 5.0 μg/ml, 5 days): 75.8%
activity at 25 µg/mL (BHK-21 cells [1]; BHK-21, 120 h, 25.0 μg/ml, 5 days): 63.5%
activity at 50 µg/mL (BHK-21 cells [1]; BHK-21, 120 h, 50.0 μg/ml, 5 days): 51.1%
cell numbers (BHK-21 cells [2]; 3rd day): 0.97 × 10^5 cells/dish
cell numbers (BHK-21 cells [2]; 5th day): 1.22 × 10^5 cells/dish
growth of incubated mouse fibroblasts (mouse fibroblasts): inhibited growth

PDGF
saturation density of the cells ([3]; Eagle's MEM containing 10% calf serum, 37° C.): increased the saturation density of the cells

EGF: epidermal growth factor
saturation density of the cells [3]: increased the saturation density of the cells
